Data set [1] addresses T1, Serotonin 2-Receptor (Rattus norvegicus, UniProt P14842).
T1 construct: from tissue; host or cells: intact anesthetized SD-SLC male rat (vascular response)
Description: Binding activity to serotonin 2-receptor, 3H-Ketanserin, rat frontal cortex membrane preparation. Conditions: calculated from the 50% inhibitory concentration, hydrochloride, read-out: dissociation constant for serotonin 2-receptor. As for the experimental part: A male SD rat was decapitated under anesthesia, and the frontal cortex was removed to obtain a membrane preparation. ^3 H-Ketanserin and Methysergide were used as a labelled ligand and a non-specific binding reagent, respectively. These reagents and a test compound thereof were dissolved in a 5% methanol tris-buffer solution. After incubation, this solution was filtered by suction through a GF/B glass filter. Radioactivity of ^3 H-Ketanserin collected on the filter was measured with a liquid scintillation counter. A Scatchard plot was prepared from the resulting radioactivity values, and a dissociation constant of serotonin 2-receptor and a receptor density of the membrane preparation were obtained. Further, from the receptor-binding inhibition curve of the compound is obtained a 50% inhibitory concentration, and a dissociation constant indicative of the binding affinity to serotonin 2-receptor was calculated.

Data set [2] has as its system Mongrel dogs. Description: Angina pectoris model: partial LDA occlusion with cyclic coronary flow reduction in dogs. The class given is in vivo. Conditions: dog. As for the experimental part:
Mongrel dogs (body weight: 8 to 20 kg) under anesthesia with pentobarbital (30 mg/kg, i.v.) were ventilated artificially and underwent a left thoracotomy. LDA was separated from connected tissues. A silicone tube for partial occlusion was placed around the LDA, and a probe for blood flow rate measurement was fixed in the neighborhood. The blood flow rate was measured with a pulse Doppler blood flow meter. A cannula was inserted into a branch distal to the occlusion site of the left coronary artery, and the coronary blood pressure was measured. A polyethylene cannula was inserted into the femoral artery, and the systemic blood pressure and heart rate were recorded. A cannula was inserted to the femoral vein for administration of a drug.
The effect of the drug was expressed in terms of frequency of the periodic reduction of blood flow rate.

Data set [3] has as its system Mongrel dogs. Description: Acute cardiac infarction model: LDA ligature and reperfusion in dogs. The data set is classed as in vivo. The note with it: dog. As for the experimental part: Mongrel dogs (body weight: 8 to 20 kg) under anesthesia were ventilated artificially and underwent a left thracotomy. […] A polyethylene cannula was inserted into the femoral artery, and the blood pressure and heart rate were recorded A cannula was inserted into the […] of a drug and also into the carotid artery from which a blood sample was to be taken. After stabilization period of the test preparation, LDA was ligated with a clamp. After 2 hours from the ligature, the clamp was released for reperfusion. After observation for the following 4 hours, the heart was excised. […] Then, the heart was washed and sliced at 1 cm intervals from the apex in the direction vertical to the longer axis. Each slice at the left ventricle was divided into a part which was in risk of cardiac infarction indicated by Evans' Blue stain (hereinafter referred to as risk area) and a normal area, and each area was weighed. The weight of the left ventricle (the sum of the risk area and the normal area) and that of the risk area of each slice were individually added up to obtain the weight of the whole left ventricle and the total weight of the risk area. Further, of each slice, the area of the risk area which was not stained with Evans' Blue and that of a cardiac infarction area within the risk area which remained white, i.e., which was stained neither in blue with Evans' Blue nor in red with triphenyltetrazolium chloride, were measured to obtain a ratio of cardiac infarction part to the whole left ventricle (infarction size). […] The experiment was conducted for the following groups.

Data set [4] deals with T1, Serotonin 2-Receptor. Description: Antagonistic activity on serotonin 2-receptor: inhibition of the serotonin-induced increase in blood pressure in anesthetized rats. The data set is classed as in vivo. The note with it: SD-SLC male rat, 10 mg/kg p.o., inhibition of blood pressure increase by serotonin 300 μg/kg i.v. As for the experimental part:
A test compound dissolved in purified water was orally administered to an SD-SLC male rat at a dose of 10 mg/kg. After 30 minutes from the administration, the rat was anesthetized with urethane (1 g/kg, i.p.) and α-Chloralose (80 mg/kg, i.p.). A polyethylene cannula was inserted into the carotid artery, and the blood pressure was recorded on a polygraph by using a pressure transducer. After 60 minutes or 180 minutes from the administration of the test compound, 300 μg/kg of serotonin was intravenously injected, and an increase in blood pressure was observed. Serotonin 2 (hereinafter referred to as […]) antagonistic activity of the test compound was calculated as a percentage of inhibition of an increase in blood pressure induced by […]. The inhibitory effect of the test compound wa compared with that of vehicle solution treated group.

Data set [5] relates to Sympathetic Nerve α1 -Receptor. As to the kind of experiment: Antagonistic activity on sympathetic nerve α1-receptor: inhibition of the phenylephrine-induced increase in blood pressure in anesthetized rats. The data set is classed as in vivo. The note with it: SD-SLC male rat, 10 mg/kg p.o.; after 60 minutes from the administration; inhibition of blood pressure increase by phenylephrine 100 μg/kg i.v. As for the experimental part:
A test compound dissolved in purified water was orally administered to an SD-SLC male rat at a dose of 10 mg/kg. After 30 minutes from the administration, the rat was anesthetized with urethane (1 g/kg, i.p.) and α-Chloralose (80 mg/kg, i.p.). A polyethylene cannula was inserted into the carotid artery, and the blood pressure was recorded on a polygraph by using a pressure transducer. After 60 minutes from the administration of the test compound, 100 μg/kg of phenylephrine was intravenously injected to observe an increase in blood pressure. Sympathetic nerve α1 -receptor antagonistic activity of the test compound was calculated as a percentage of inhibition of an increase in blood pressure induced by phenylephrine. The inhibitory effect of the test compound was compared with that of vehicle solution treated group.

For the next data set, the system named is ddy male mice. As to the kind of experiment: Toxicity in mice, repeated oral administration. The class given is in vivo, mouse. As for the experimental part: A test compound dissolved or suspended in a 1% methyl cellulose solution was orally administered to ddy male mice (4 or 5 mice per group) at a dose of 200 mg/kg once a day for consecutive 4 days. The number of dead animals per group was counted on the day next to the final administration day. As a control, 10 mλ/kg of 1% methyl cellulose solution was orally administered.

A further data set has as its system rats. As to the kind of experiment: Toxicity in rats, oral administration for 10 days. The class given is in vivo, rat. The note with it: 5 test animals.
Data set [6] relates to Sympathetic Nerve α1 -Receptor. As to the kind of experiment: Antagonistic activity on sympathetic nerve α1-receptor: inhibition of the phenylephrine-induced increase in blood pressure in anesthetized rats. The class given is in vivo. The note with it: SD-SLC male rat, 10 mg/kg p.o.; after 180 minutes from the administration; inhibition of blood pressure increase by phenylephrine 100 μg/kg i.v.

Setting [7] is: after 60 minutes from the administration.
Setting [8] is: ddy male mice, 200 mg/kg p.o. once a day for consecutive 4 days, dead animals per group.

Each structure is given as a SMILES string. Where a name gives a salt, the structure may show the parent alone.

T1 sequence (P14842 whole entry): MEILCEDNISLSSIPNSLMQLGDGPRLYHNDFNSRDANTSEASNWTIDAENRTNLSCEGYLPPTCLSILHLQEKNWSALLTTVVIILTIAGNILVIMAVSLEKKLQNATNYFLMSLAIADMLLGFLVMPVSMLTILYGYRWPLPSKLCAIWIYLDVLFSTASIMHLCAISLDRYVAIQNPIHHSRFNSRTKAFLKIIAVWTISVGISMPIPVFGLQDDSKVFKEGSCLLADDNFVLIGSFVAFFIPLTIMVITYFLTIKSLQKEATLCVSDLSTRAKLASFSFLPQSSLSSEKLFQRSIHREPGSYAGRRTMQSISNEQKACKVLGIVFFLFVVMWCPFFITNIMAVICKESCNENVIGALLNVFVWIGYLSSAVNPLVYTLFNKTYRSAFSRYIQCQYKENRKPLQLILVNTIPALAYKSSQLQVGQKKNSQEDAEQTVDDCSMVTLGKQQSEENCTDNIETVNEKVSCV

For the compound `O=C(c1ccc(F)cc1)C1CCN(CCn2c(=O)nc3n(c2=O)CCCC3)CC1` [Example 1, 3-[2-[4-(4-Fluorobenzoyl)piperidin-1-yl]ethyl]-6,7,8,9-tetrahydro-2H-pyrido[1,2-a]-1,3,5-triazine-2,4(3H)-dione], the Ki on Serotonin 2-Receptor [1] is 0.015 µM. In addition, the “effect on frequency of the cyclic coronary flow reduction (in words)” value with Mongrel dogs [2] (maleate 0.1 mg/kg i.v., compared with before administration) is “significantly reduces”. Also, the “effect on myocardial infarction size (in words)” value with Mongrel dogs [3] (hydrochloride 1 mg/kg/hr intravenous drip, versus control group) is on record as “significantly reduced”.

In the case of `Cl.O=C(c1ccc(F)cc1)C1CCN(CCn2c(=O)nc3n(c2=O)CCCC3)CC1` [Example 2, 3-[2-[4-(4-Fluorobenzoyl)piperidin-1-yl]ethyl]-6,7,8,9-tetrahydro-2H-pyrido[1,2-a]-1,3,5-triazine-2,4(3H)-dione Hydrochloride], the “Antagonistic Activity 5-HT2 (%)” value at Serotonin 2-Receptor [4] (setting [7]) was 93%. Also, the “Antagonistic Activity α1 (%)” value in data set [5] is listed as 9%. Moreover, the “Myocardial Blood Flow” value in the data set with Mongrel dogs [3] (1 mg/kg/hr intravenous drip, after 2 h ligature and reperfusion, mean ± S.E.M., control 62 ± 9) came out at 89 ± 14 ml/min/100 g. For the same compound, in the data set with Mongrel dogs [3] (ratio of cardiac infarction part to the whole left ventricle, 1 mg/kg/hr intravenous drip, mean ± S.E.M., control 30 ± 7), the “Infarction Size (%)” value was 11 ± 3%. For the same compound, in the data set on ddy male mice (setting [8]), the “Toxicity (Death Rate)” value was 1/5.

In the case of `O=C(c1ccc(F)cc1)C1CCN(CCn2c(=O)nc3n(c2=O)CCCC3)CC1` [Example 3, 3-[2-[4-(4-Fluorobenzoyl)piperidin-1-yl]ethyl]-6,7,8,9-tetrahydro-2H-pyrido1,2-a]-1,3,5-triazine-2,4(3H)-dione Maleate], the “Number of Dead Animals” value with rats (50 mg/kg (p.o.)), with rats (200 mg/kg (p.o.)) and in the data set on rats (800 mg/kg (p.o.)) was 0 each time. In addition, the “Antagonistic Activity 5-HT2 (%)” value at Serotonin 2-Receptor [4] (setting [7]) was 93%. Further, the “Antagonistic Activity α1 (%)” value in data set [5] was found to be 39%. For the same compound, the “Frequency of Periodic Reduction in Blood Flow Rate, After Admin.” value in the data set on Mongrel dogs [2] (0.1 mg/kg i.v. (maleate), mean ± S.E.M., before admin. 9.9 ± 2.5) stood at 2.3 ± 1.2. Moreover, the “Toxicity (Death Rate)” value in the data set with ddy male mice (setting [8]) is on record as 0/5.

On to `O=C(c1ccc(F)cc1)C1CCN(CCn2nc3ccccn3c2=O)CC1` [Example 49, 2-[2-[4-(4-Fluorobenzoyl)piperidin-1-yl]ethyl]-1,2,4-triazolo[4,3-a]-pyridin-3(2H)-one Hydrochloride Hemihydrate], for which the “Antagonistic Activity α1 (%)” value in data set [6] is recorded as 3%. Also, the “Antagonistic Activity 5-HT2 (%)” value at Serotonin 2-Receptor [4] (after 180 minutes from the administration) was 82%. Besides, in the data set with ddy male mice (setting [8]), the “Toxicity (Death Rate)” value is reported as 0/5.

For the compound `Cl.O=C(c1ccc(F)cc1)C1CCN(CCn2nc3n(c2=O)CCCC3)CC1` [Example 51, 2-[2-[4-(4-Fluorobenzoyl)piperidin-1-yl]ethyl]-5,6,7,8-tetrahydro-1,2,4-triazolo[4,3-a]-pyridin-3(2H)-one Hydrochloride], on Serotonin 2-Receptor [4] (setting [7]), the “Antagonistic Activity 5-HT2 (%)” value worked out at 95%. For the same compound, the “Antagonistic Activity α1 (%)” value in data set [5] worked out at 3%. Besides, the “Toxicity (Death Rate)” value in the data set on ddy male mice (setting [8]) is on record as 0/5.

Turning to `O=C(c1ccc(Cl)cc1)C1CCN(CCn2nc3n(c2=O)CCCC3)CC1` [Example 75, 2-[2-[4-(4-Chlorobenzoyl)piperidin-1-yl]ethyl]-5,6,7,8-tetrahydro-1,2,4-triazolo[4,3-a]pyridin-3(2H)-one Hydrochloride], the “Antagonistic Activity 5-HT2 (%)” value on Serotonin 2-Receptor [4] (setting [7]) came to 83%. The “Antagonistic Activity α1 (%)” value in data set [5] is reported as 17%. Moreover, in the data set on ddy male mice (setting [8]), the “Toxicity (Death Rate)” value is given as 0/3.

Turning to `O=C(c1ccc(F)cc1)C1CCN(CCn2c(=O)[nH]c3ccccc3c2=O)CC1` [Ketanserin, reference compound], the “Antagonistic Activity 5-HT2 (%)” value at Serotonin 2-Receptor [4] (setting [7]) worked out at 96%. The “Antagonistic Activity α1 (%)” value in data set [5] was 73%. The “Toxicity (Death Rate)” value in the data set on ddy male mice (mouse, in vivo, po, 200 mg/kg) is on record as 5/5.

Consider `Cc1nc2sccn2c(=O)c1CCN1CCC(=C(c2ccc(F)cc2)c2ccc(F)cc2)CC1` [Ritanserin, reference compound], for which the “Antagonistic Activity 5-HT2 (%)” value on Serotonin 2-Receptor [4] (setting [7]) was found to be 84%. Moreover, the “Antagonistic Activity α1 (%)” value in data set [5] is recorded as 5%. In the data set with ddy male mice (setting [8]), the “Toxicity (Death Rate)” value is 3/5.

Source of the values: US5232924A, “Heterocyclic compound having serotonine 2-receptor antagonistic activity” (Daiichi Pharmaceutical Co., Ltd., priority 1989, dated 1993).
